These results are taken from patent EP0059645A1, “Method and kit for identification of beta-lactamases” (NATIONAL RESEARCH DEVELOPMENT CORPORATION, priority 1981, dated 1982).

The target of one series is SHV-1 (Escherichia coli, UniProt P0AD63). Put plainly: Competitive assay with nitrocefin (RSAI). Type of series: biochemical, E. coli 2008E. Further details: the beta-lactamase has to be extracted from the cells for the purpose of the present invention; made in house; host or cells: E. coli 2008E (crude cell extract).
For a further series, the target named is TEM-1 (Escherichia coli, UniProt P62593). Put plainly: Competitive assay with nitrocefin (RSAI). Type of series: biochemical, E. coli 2136E. Set-up: the beta-lactamase has to be extracted from the cells for the purpose of the present invention; made in house; host or cells: E. coli 2136E (plasmid-bearing strain; crude cell extract).
Series [1] deals with T1, Chromosomal, hyper-induced beta-lactamase enzyme (Escherichia coli, UniProt P00811). Put plainly: Competitive assay with nitrocefin (RSAI). Type of series: biochemical, E. coli SNU35. Set-up: Normally, therefore, the beta-lactamase has to be extracted from the cells for the purpose of the present invention; endogenous in cells; host or cells: E. coli SNU 35 (artificially produced strain).

Another series concerns K17. Put plainly: Competitive assay with nitrocefin (RSAI). Type of series: biochemical, Klebsiella 17.
In a further series the target is PSE-4 (Pseudomonas aeruginosa, UniProt P16897). Briefly: Competitive assay with nitrocefin (RSAI). Type of series: biochemical, Ps.aerug. 1559E. Further details: Normally, therefore, the beta-lactamase has to be extracted from the cells for the purpose of the present invention; endogenous in cells.
The next series relates to PSE-3. Briefly: Competitive assay with nitrocefin (RSAI). The series is classed as biochemical, Ps.aerug. 1920E.
For another series, the system named is HMS-1. Put plainly: Competitive assay with nitrocefin (RSAI). Type of series: biochemical, E. coli 1946.
Another series has as its target TEM-2 beta-lactamase (Escherichia coli, UniProt P62593, Q37K). The series is classed as biochemical, E. coli C9 RP4. To be noted: from kinetics of nitrocefin cleavage.
For another series, the target named is PSE-2 (Pseudomonas aeruginosa, UniProt P14489). Put plainly: Competitive assay with nitrocefin (RSAI). The series is classed as biochemical, Ps.aerug. 1973E. Further details: Normally, therefore, the beta-lactamase has to be extracted from the cells for the purpose of the present invention; endogenous in cells.
Another series deals with K1073. Put plainly: Competitive assay with nitrocefin (RSAI). Type of series: biochemical, Klebsiella 1073.
A further series concerns the target PSE-1 (Pseudomonas aeruginosa, UniProt Q03170). Put plainly: Competitive assay with nitrocefin (RSAI). Type of series: biochemical, Ps.aerug. 1937E. Set-up: Normally, therefore, the beta-lactamase has to be extracted from the cells for the purpose of the present invention; endogenous in cells.
The next series concerns the target TEM-2 (Escherichia coli, UniProt P62593, Q37K). Briefly: Competitive assay with nitrocefin (RSAI). Type of series: biochemical, E. coli 1725E.
In series [2] the target is T2, Chromosomal, induced beta-lactamase enzyme (Pseudomonas aeruginosa, UniProt P24735).
T2 construct: Normally, therefore, the beta-lactamase has to be extracted from the cells for the purpose of the present invention; endogenous in cells; host or cells: Pseudomonas aeruginosa 1937E grown with ampicillin
Put plainly: Competitive assay with nitrocefin (RSAI). The series is classed as biochemical, Ps.aerug. 1937E + ampicillin.

Series [3] addresses T3, Chromosomal, constitutive beta-lactamase enzyme (Enterobacter cloacae, UniProt P05364).
T3 construct: Normally, therefore, the beta-lactamase has to be extracted from the cells for the purpose of the present invention; endogenous in cells
Briefly: Competitive assay with nitrocefin (RSAI). Type of series: biochemical, E. cloacae.

The next series has as its system K10317. Briefly: Competitive assay with nitrocefin (RSAI). The series is classed as biochemical, K.aerog. 10317.
Series [4] concerns the target T4, OXA-2 (Escherichia coli, UniProt P0A1V9). Put plainly: Competitive assay with nitrocefin (RSAI). Type of series: biochemical, E. coli R46. Further details: the beta-lactamase has to be extracted from the cells for the purpose of the present invention; made in house; host or cells: E. coli carrying R46 according to the earlier reading (crude cell extract).
Series [5] has as its target T5, OXA-1 (Escherichia coli, UniProt P13661). Put plainly: Competitive assay with nitrocefin (RSAI). The series is classed as biochemical, E. coli 1527E. Set-up: the beta-lactamase has to be extracted from the cells for the purpose of the present invention; made in house; host or cells: E. coli 1527E according to the earlier reading (crude cell extract).
The target in the next series is OXA-3 (Pseudomonas aeruginosa, UniProt Q51429). Put plainly: Competitive assay with nitrocefin (RSAI). Type of series: biochemical, E. coli R57B. Set-up: Normally, therefore, the beta-lactamase has to be extracted from the cells for the purpose of the present invention; endogenous in cells.
The subject of series [6] is "unknown" (unidentified) beta-lactamase. Put plainly: Competitive assay with nitrocefin (RSAI) on an unidentified beta-lactamase. As to conditions: extract by the method of Example 6, assay as in Example 1; * = showed irreversible inhibition.
The target of series [7] is T1, Chromosomal, hyper-induced beta-lactamase enzyme. Put plainly: Hydrolysis of nitrocefin by enzyme (Michaelis constant). To be noted: read-out: Km (Nitrocefin); enzyme No. 9.
Series [8] addresses T4, OXA-2. Described as above. As to conditions: read-out: Km (Nitrocefin); enzyme No. 6.
The target in series [9] is T5, OXA-1. Put plainly: Cleavage of chromogenic substrate by enzyme (PADAC example). As to conditions: PADAC monitored at 570 nm; same enzyme preparation for nitrocefin.
Series [10] deals with O=C(Cc1cccs1)N[C@@H]1C(=O)N2C(C(=O)O)=C(C=Cc3ccc([N+](=O)[O-])cc3[N+](=O)[O-])CS[C@H]12. Put plainly: purified protein, by the assay type. To be noted: pH 7.0; 37.0 °C.
The test system is the same in series [11]. Put plainly: purified protein, by the assay type. As to conditions: pH 7.0; 37.0 °C. This is another data set of the same source.

What is called Km is the substrate concentration at which the rate is half of its maximum.

Where two headings read alike, the source gives them in different places. Marks after values point to notes of the source that are not given here.

In the case of `Cc1onc(-c2ccccc2Cl)c1C(=O)N[C@@H]1C(=O)N2[C@@H]1SC(C)(C)[C@@H]2C(=O)O` [Cloxacillin], the RSAI on SHV-1 is 2; on TEM-1, 0.75; in series [1] it was 0.0000016*; in the series on K17, 14; on PSE-4 it was 3.3; in the series with PSE-3, 0.24. In addition, the RSAI is recorded as 0.02 in the series with HMS-1; 4.5 at PSE-2; 4* in the series with K1073; 2 at PSE-1; 0.5 at TEM-2; 0.00017 in series [2]. Besides, the RSAI in series [3] was 0.00004; in the series with K10317 it was 3.7*; at OXA-2 [4], 30; on OXA-1 [5] it was 0.6; at OXA-3, 0.01. Moreover, the “nature of the binding to the enzyme” value on TEM-2 beta-lactamase is on record as “does not undergo irreversible binding”.
As for `CO[C@@]1(NC(=O)C(C(=O)O)c2ccc(O)cc2)C(=O)N2C(C(=O)O)=C(CSc3nnnn3C)CO[C@@H]21` (stereo partly drawn) [Moxalactam], the RSAI at SHV-1 was 280; at TEM-1 it was 40*; in series [1], 0.002*; in series [1] (listed as moxalactam), 0.002; with K17, 3.5; at PSE-4 it was 4.3. Besides, the RSAI with PSE-3 is 7; in the series on HMS-1 it was 0.3*; at PSE-2, 8.2; in the series with K1073 it was >80; on PSE-1, 3.5; at TEM-2, 60*. Besides, the RSAI in series [2] is listed as 0.006*; in series [2] (listed as moxalactam) it was 0.006; in [6], 0.0001; in [3] it was 0.0001*; in series [3] (listed as moxalactam) it was 0.0001; with K10317, 60*. The RSAI on OXA-2 [4] is on record as 3*; on OXA-1 [5], 4*; at OXA-3, 1*.
For `O=C(Cc1cccs1)N[C@@H]1C(=O)N2C(C(=O)O)=C(C=Cc3ccc([N+](=O)[O-])cc3[N+](=O)[O-])CS[C@H]12` [Nitrocefin, 3-(2,4-dinitrostyryl)-(6R,7R)-7-(2-thienylacetamido)ceph-3-em-4-carboxylic acid], the Km in series [7] was 34.8 µM; on OXA-2 [8] it was < 9.68 µM. For the same compound, the “cleavage of chromogenic substrate by the enzyme” value on OXA-1 [9] is on record as “cleaved”.
Turning to (Escherichia coli), the Michaelis constant (Km) was 16 µg/mL in series [10] and 9 µg/mL in series [11].
(Pseudomonas aeruginosa): in [10], the Km worked out at 28 µg/mL.
